The values that follow come from PubChem BioAssay AID1320 (NMMLSC, 2008).

The structures appear in SMILES notation. Active and inactive are the calls of the source. No rule for the calls is given here.

In the assay the target is Bcl-2-related protein A1 (Homo sapiens) (UniProt Q16548). As to the kind of experiment: Bfl-1/Bim complex disruptors – biochemical, multiplexed, bead-based flow cytometry, dose response (AID 1320). Also: test concentration not given here. The note with it: Bim peptide-Bfl-1 binding, fluorescence. (Flow cytometry measures light scatter and fluorescence of single cells or particles in a stream.)
Bcl-2-related protein A1 (Homo sapiens), sequence (Q16548 whole entry, looked up): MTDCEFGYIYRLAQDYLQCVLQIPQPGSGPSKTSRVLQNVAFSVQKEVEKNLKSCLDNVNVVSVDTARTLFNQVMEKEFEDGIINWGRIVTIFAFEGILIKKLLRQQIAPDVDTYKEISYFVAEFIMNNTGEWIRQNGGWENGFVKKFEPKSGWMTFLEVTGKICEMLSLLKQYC
`Cc1ccc(C)c(N2CCN(C(=S)Nc3ccc4nc(N5CCN(C)CC5)cc(C)c4c3)CC2)c1`: the “percent span (inhibition)” value was “inactive”. For the compound `CCOc1cc(CNc2ccc(N(C)C)cc2)cc(Br)c1OCC(=O)NC(C)(C)C`, the “percent span (inhibition)” value was “inactive”. Then `Cc1cc(C(=O)NCCCN(C)C)c2ccccc2n1`, with “inactive”. Then `COc1ccc2oc(-c3ccccc3)c(C(=O)N3CCOCC3)c2c1`, with “inactive”. Under `COc1ccc(S(=O)(=O)NCCSc2ccccc2)cc1OC` stands “inactive”. In the case of `O=C1Nc2ccc([N+](=O)[O-])cc2OC1CCN1CCN(Cc2ccc3c(c2)OCO3)CC1` (stereo not drawn), the “percent span (inhibition)” value is “inactive”. `O=S1(=O)N=C(N(CCO)/N=C/c2ccccc2)c2ccccc21`: the “percent span (inhibition)” value is “inactive”. Under `OCCN1CCN(CCCc2c3c(cc4c2CCC4)CCC3)CC1` stands “inactive”.

Regarding `O=C(NCCCN1CCCC1=O)NC1CCCCC1`, the “percent span (inhibition)” value was “inactive”. Then `COc1ccc(NC(=O)c2c(F)cccc2F)cc1S(=O)(=O)Nc1ccc(Br)cc1`, with “inactive”; and `CC1Cc2ccccc2N1C(=O)c1ccc(N2CCCC2)c([N+](=O)[O-])c1` (stereo not drawn), with “inactive”; and `O=C(Nc1ccncc1)c1cc2ccccc2o1`, with “inactive”. Under `O=C(CSc1ccc2nnc(-c3ccccn3)n2n1)Nc1nccs1` stands “inactive”; under `CN(C)c1ccc(C(=O)/C=C/c2ccc(Br)cc2)cc1`, “inactive”. Regarding `O=C(/C=C/c1c(F)cccc1Cl)Nc1ccncc1`, the “percent span (inhibition)” value was “inactive”.

In the case of `Cc1ccc(CC(=O)OCCNC(=O)c2cccnc2)cc1`, the “percent span (inhibition)” value was “inactive”. Under `COc1cccc2c(SCC(=O)N/N=C/c3ccc(O)c(O)c3)cc(C)nc12` stands “inactive”; under `Cc1ccc(Nc2nc(-c3ccccc3)c(CC(=O)O)s2)cc1`, “inactive”; under `Cn1c(=O)c2c(nc(NCCO)n2CCc2ccccc2)n(C)c1=O`, “inactive”. Then `COc1cc(/C=C2/NC(=O)N(Cc3ccccc3F)C2=O)ccc1O`, with “inactive”; and `Cc1nn(-c2ccc(Cl)cc2)c(Cl)c1/C=C(\C#N)C(N)=O`, with “inactive”; and `O=C(O)CCN1C(=O)/C(=C\c2ccc(-c3nc4ccccc4s3)o2)SC1=S`, with “inactive”. As to `O=C(NCC1CCCO1)c1ccc2c(=O)n(-c3ccc(F)cc3)c(=S)[nH]c2c1` (stereo not drawn), the “percent span (inhibition)” value was “inactive”. With `Cc1ccc(C)c(Oc2ncnc(N)c2[N+](=O)[O-])c1`, the “percent span (inhibition)” value was “inactive”. Under `O=C(Nc1nnc(SCc2ccccn2)s1)C1CC(=O)N(c2ccccc2)C1` (stereo not drawn) stands “inactive”; under `O=C(O)CC1S/C(=N/N=C/C=C/c2ccccc2[N+](=O)[O-])NC1=O` (stereo not drawn), “inactive”; under `O=C(COC(=O)c1ccccn1)NC1CCCCC1`, “inactive”. Under `CCN(CC)c1ccc(NC(=O)c2cccc(C)c2)cc1S(=O)(=O)Nc1ccccc1OC` stands “inactive”; under `COc1cccc(/C=C2/SC(=O)N(C)C2=O)c1OCc1ccc(C(=O)O)cc1`, “inactive”. With `O=C1C(Cl)=C(Nc2ccccc2O)C(=O)N1c1ccccc1`, the “percent span (inhibition)” value was “inactive”. Regarding `Cc1cnnn1-c1ccc(C(=O)CCl)cc1`, the “percent span (inhibition)” value was “inactive”. Then `CCOc1ncccc1C(=O)OC(C)C(=O)Nc1ccc(CC)cc1` (stereo not drawn), with “inactive”; and `Cc1ccc(NC2=C(Cl)C(=O)c3ccccc3C2=O)cc1`, with “inactive”.
